From patent US20050239889A1, “In vivo release of endogenous anti-microbial mediators by leukotriene B4 (LTB4) administration” (priority 2004, published 2005)

What was measured:
[1] = test system: α-Defensins; assay: Plasma α-Defensins (ELISA) after intravenous LTB4 administration to human subjects, Phase I study; type: in vivo
Method: (§1) Plasma samples were obtained from 19 HIV-uninfected human volunteers taking part in a Phase I clinical study on the safety and tolerability of intravenously (i.v.) administered bolus of LTB4. In brief, 3 individuals received saline (placebo) and 16 (4 subjects/group) were administered LTB4 in doses ranging from 0.05 μg/kg to 50 μg/kg per day for 7 consecutive days. Venous blood was collected twice before injection (-5 and -2 minutes) to establish baseline values. Following the i.v. administration of saline or LTB4, blood samples were drawn at 0.5, 1, 2, 4, 6, and 24 hours post-injection into blood collection tubes, using EDTA as anti-coagulant. Immediately after blood collection, the samples were put on ice until processed. All plasma isolation procedures were carried out at 4° C. Plasma samples were stored at −80° C. until assayed by ELISA for α-Defensins (HyCult Biotechnology bv, The Netherlands) and MIP-β(Amersham/Pharmacia, Baie d'Urfé, Canada).
Healthy volunteers participating in a Phase I clinical study on the safety and tolerability of intravenously administered LTB4, were randomized into 5 groups: placebo (n=3), LTB4 0.05 μg/kg (n=4), LTB4 0.5 μg/kg (n=4), LTB4 5 μg/kg (n=4) and LTB4 50 μg/kg (n=4). LTB4 was administered once daily for 7 consecutive days and plasma samples (0-6 hours post-LTB4 administration) from all 19 volunteers were tested for the presence of α-Defensins using a commercial ELISA kit. The mean ± standard error of α-Defensins releases (ng/ml plasma) for each group are presented in FIG. 1 with statistical analysis performed using the placebos as control group. Healthy individuals received a placebo (3 subjects) or doses of LTB4 ranging form 0.05 μg/kg to 50 μg/kg (n=4 subjects/group). Plasma samples were obtained at various time points before and after LTB4 injections and the α-Defensin levels determined by ELISA. The data shown in FIG. 1 represent the mean ± standard error of α-Defensins (ng/mL plasma) of all subjects within each group. P values were determined by comparing the mean α-Defensin levels of each group that received LTB4 versus the placebo group at the same time points. *p<0.001; **p<0.05. Plasma samples obtained before placebo or LTB4 injections indicate that there were no significant differences in the basal levels of α-Defensins between the groups.

[2] = test system: MIP-1β; assay: Plasma MIP-1β (ELISA) after intravenous LTB4 administration to human subjects, Phase I study; type: in vivo; details: i.v.
Method: as §1
Considering that soluble anti-HIV factors include β-chemokines and that neutrophils are capable of producing MIP-1β, we measured the levels of this β-chemokine in plasma of individuals that received a placebo or LTB4 (same cohorts as mentioned above). Plasma samples from healthy subjects that received a placebo (n=3) or LTB4 (5 and 50 μg/kg [n=4 subjects/group]) were obtained at various time points before and after LTB4 injections. Data are expressed as mean ± […] of the mean of MIP-1β levels (pg/ml) for all subjects within each group. P values were determined by comparing the mean MIP-1β levels of each group that received LTB4 versus the placebo group at the same time points. *p<0.025. […] Plasma samples from subjects that received the 2 lowest doses of LTB4 were not tested for MIP-1β.

[3] = test system: α-Defensins; assay: Plasma α-Defensins (ELISA) after subcutaneous LTB4 administration to monkeys; type: in vivo, Macaca fascicularis; details: macaques
Method: Two macaques (Macaca fascicularis) were used for the study. For subcutaneous injections, the areas to be injected were first shaved one day before dosing. Volumes of 0.075 mL (monkey IJI) or 0.1 mL (monkey JKN) of LTB4 solution were administered subcutaneously in the arm of the animal to compensate for slight difference between both monkeys. Venous blood samples were collected at various time points with all plasma isolation procedures performed at 4° C. Platelet-free plasma samples were stored at −80° C. until assayed for α-Defensins using a commercial ELISA kit (HyCult Biotechnology bv, The Netherlands). We next studied the change in plasmatic concentration of the antimicrobial peptides α-Defensins in monkeys following subcutaneous (s.c.) administration of LTB4. Monkeys were injected s.c. with 5,5 μg/kg or 50 μg/kg of LTB4 and blood samples were taken at various time points and used for (α-Defensins measurements in the plasma, using a commercial ELISA kit. The results obtained are presented in FIGS. 3A (5,5 μg/kg) and 3B (50 μg/kg). Two macaques (IJI and JKN) were injected subcutaneously with 5,5 μg/kg (A) or 50 μg/kg (B) of LTB4. Blood samples were collected at various time points and α-Defensins levels measured in plasma samples using a commecial ELISA kit. Overall, the data obtained indicate that α-Defensins levels in plasma remain relatively stable up to 15 minutes post-LTB4 administration. α-Defensins levels started to increase by 30 minutes and peaked at two hours post LTB4 administration. […] For monkeys that received 50 μg/kg, (α-Defensins levels remained at their highest up to 4 hours post injection, followed by a gradual decrease. In both sets (5,5 μg/kg and 50 μg/kg), the levels of α-Defensins remained above baseline values up to 6 hours following LTB4 delivery

CCCCC/C=C\C[C@@H](O)/C=C/C=C/C=C\[C@@H](O)CCCC(=O)O [LTB4, 5S,12R-dihydroxy-6,8,10,14(Z,E,E,Z)-eicosatetraenoic acid]
release of α-Defensins in plasma, dose dependence ([1]; i.v. bolus once daily for 7 days, 0.05 to 50 μg/kg, versus placebo group): triggered dose-dependent release of α-Defensins | increase in plasmatic α-Defensins ([1]; i.v., 0.5 μg/kg): although not significant, caused a measurable increase in plasmatic α-Defensins | time of maximal effect on plasmatic α-Defensins post-LTB4 administration ([1]; i.v., 0.5 μg/kg): two | time of peak α-Defensin levels ([1]; i.v., 5 μg/kg and 50 μg/kg): 2 h | time to significant increase of α-Defensin release following LTB4 injections ([1]; i.v., 5 μg/kg and 50 μg/kg): 30 min | peak α-Defensin levels over the placebo group ([1]; i.v., 5 μg/kg and 50 μg/kg, at 2 hours, p<0.001): 5-7 fold | time α-Defensin levels remained above the control levels post-LTB4 administration ([1]; i.v., 5 μg/kg and 50 μg/kg, p<0.05): up to 6 hours | α-Defensins levels 24 hours post-LTB4 administration ([1]; i.v., 24 hours): back to the pre-injection levels | α-Defensins release in plasma ([1]; i.v., lowest dose of LTB4 (0.05 μg/kg)): did not significantly enhanced α-Defensins release | start of elevation in plasmatic MIP-1β levels post-LTB4 injection ([2]; 5-50 μg/kg): 1 h | time of maximal plasmatic MIP-1β levels post-LTB4 injection ([2]; 5-50 μg/kg): 2 h | MIP-1β plasmatic levels at 6 hours post-LTB4 administration ([2]; 5-50 μg/kg, 6 hours): had returned to original levels | statistical significance of MIP-1β elevation versus placebo ([2]; 5 and 50 μg/kg groups, n=4 per group, p<0.025): statistical significance was observed only for those that received the highest dose of LTB4 | time α-Defensins levels remained at their highest post injection ([3]; s.c., 50 μg/kg, followed by a gradual decrease): up to 4 hours | time of peak α-Defensins levels post LTB4 administration ([3]; s.c., 5,5 μg/kg or 50 μg/kg): two | time α-Defensins levels in plasma remain relatively stable post-LTB4 administration ([3]; s.c., 5,5 μg/kg or 50 μg/kg): up to 15 minutes | time α-Defensins levels started to increase ([3]; s.c., 5,5 μg/kg or 50 μg/kg): 30 min | course of α-Defensins levels after the peak ([3]; s.c., 5,5 μg/kg, experiment ended at hour 6): started to drop by the fourth hour and continued to do so up to hour 6 | time levels of α-Defensins remained above baseline values following LTB4 delivery ([3]; s.c., both 5,5 μg/kg and 50 μg/kg): up to 6 hours
